According to patent US10759751B2, “Substituted spirocyclohexanes as muscarinic M1 receptor and/or M4 receptor agonists” (Heptares Therapeutics Limited, priority 2016, dated 2020):

What was measured:
Format in all cases: cell-based
[1] = molecular target: T1, human muscarinic M1 receptor (Homo sapiens, UniProt P11229); experiment: Alphascreen Surefire phospho-ERK1/2 functional assay, M1; conditions: for EC50 / M1 % Emax cf. ACh: CHO cells stably expressing human M1; for EC50: phospho-ERK1/2, read-out: pEC50 M1 (converted); for Emax: CHO, read-out: M1 % Emax cf. ACh, CHO cells stably expressing human M1; for Emax / M1 % Emax cf. ACh: Emax relative to ACh
T1 sequence (P11229 1-460): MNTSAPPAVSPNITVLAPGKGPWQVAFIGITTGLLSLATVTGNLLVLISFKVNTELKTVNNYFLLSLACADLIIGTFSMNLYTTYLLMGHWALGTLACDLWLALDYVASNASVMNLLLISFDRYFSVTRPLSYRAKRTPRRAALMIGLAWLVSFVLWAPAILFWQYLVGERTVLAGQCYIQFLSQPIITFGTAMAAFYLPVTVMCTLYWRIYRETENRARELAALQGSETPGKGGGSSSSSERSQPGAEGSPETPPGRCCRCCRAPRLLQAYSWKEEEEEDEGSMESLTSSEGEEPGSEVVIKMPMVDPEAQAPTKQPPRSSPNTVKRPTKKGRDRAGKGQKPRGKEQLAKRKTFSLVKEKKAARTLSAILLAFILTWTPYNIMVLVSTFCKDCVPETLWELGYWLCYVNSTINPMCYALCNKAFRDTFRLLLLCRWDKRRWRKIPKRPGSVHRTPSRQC
Procedure: (§1) Functional assays were performed using the Alphascreen Surefire phospho-ERK1/2 assay (Crouch & Osmond, Comb. Chem. High Throughput Screen, 2008). ERK1/2 phosphorylation is a downstream consequence of both Gq/11 and Gi/o protein coupled receptor activation, making it highly suitable for the assessment of M1, M3 (Gq/11 coupled) and M2, M4 receptors (Gi/o coupled), rather than using different assay formats for different receptor subtypes. CHO cells stably expressing the human muscarinic M1, M2, M3 or M4 receptor were plated (25K/well) onto 96-well tissue culture plates in MEM-alpha+10% dialysed FBS. Once adhered, cells were serum-starved overnight. Agonist stimulation was performed by the addition of 5 μL agonist to the cells for 5 min (37° C.). Media was removed and 50 μL of lysis buffer added. After 15 min, a 4 μL sample was transferred to 384-well plate and 7 μL of detection mixture added. Plates were incubated for 2 h with gentle agitation in the dark and then read on a PHERAstar plate reader.
(§2) pEC50 and Emax figures were calculated from the resulting data for each receptor subtype.

[2] = molecular target: T2, human muscarinic M4 receptor (Homo sapiens, UniProt P08173); experiment: Alphascreen Surefire phospho-ERK1/2 functional assay, M4; conditions: for EC50: read-out: pEC50 M4 (converted); for Emax: CHO, read-out: M4 % Emax cf. ACh, CHO cells stably expressing human M4; for Emax / M4 % Emax cf. ACh: Emax relative to ACh
T2 construct: expressed in transfected cells
T2 sequence (P08173 1-479): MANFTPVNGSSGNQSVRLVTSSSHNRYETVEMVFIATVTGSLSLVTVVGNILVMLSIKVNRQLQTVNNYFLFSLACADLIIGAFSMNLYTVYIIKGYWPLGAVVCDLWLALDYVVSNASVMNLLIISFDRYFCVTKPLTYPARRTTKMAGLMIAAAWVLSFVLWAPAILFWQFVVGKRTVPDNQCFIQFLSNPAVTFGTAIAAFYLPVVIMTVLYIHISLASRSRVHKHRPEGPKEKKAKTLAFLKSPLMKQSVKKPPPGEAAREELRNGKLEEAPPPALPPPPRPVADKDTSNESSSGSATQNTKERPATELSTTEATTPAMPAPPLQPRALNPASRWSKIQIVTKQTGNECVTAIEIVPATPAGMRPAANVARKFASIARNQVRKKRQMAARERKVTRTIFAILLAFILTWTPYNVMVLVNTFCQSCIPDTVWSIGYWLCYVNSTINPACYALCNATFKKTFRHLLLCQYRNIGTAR
Procedure: as §1, §2

[3] = molecular target: T3, human muscarinic M3 receptor (Homo sapiens, UniProt P20309); experiment: Alphascreen Surefire phospho-ERK1/2 functional assay, M3
T3 construct: expressed in transfected cells
T3 sequence (P20309 whole entry): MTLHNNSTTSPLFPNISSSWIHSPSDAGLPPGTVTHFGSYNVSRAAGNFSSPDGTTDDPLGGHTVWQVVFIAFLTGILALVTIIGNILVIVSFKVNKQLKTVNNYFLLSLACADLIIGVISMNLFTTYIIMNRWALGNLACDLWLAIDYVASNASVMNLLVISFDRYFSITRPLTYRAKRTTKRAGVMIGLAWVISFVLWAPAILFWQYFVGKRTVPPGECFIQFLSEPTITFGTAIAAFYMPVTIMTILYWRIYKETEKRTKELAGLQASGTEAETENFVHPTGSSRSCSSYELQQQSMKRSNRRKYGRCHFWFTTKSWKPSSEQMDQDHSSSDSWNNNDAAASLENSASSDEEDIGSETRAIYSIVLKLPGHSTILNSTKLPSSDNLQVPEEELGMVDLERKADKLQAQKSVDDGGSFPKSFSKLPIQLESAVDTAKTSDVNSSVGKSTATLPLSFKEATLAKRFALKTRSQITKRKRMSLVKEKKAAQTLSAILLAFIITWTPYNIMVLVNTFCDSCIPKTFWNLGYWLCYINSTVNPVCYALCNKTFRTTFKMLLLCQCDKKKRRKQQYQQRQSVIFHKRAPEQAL
Procedure: as §1, §2

[4] = CHO cells stably expressing human M4, phospho-ERK1/2
[5] = CHO cells stably expressing human M4

`Cc1noc(C2CC2CNC2CCC3(CC2)C(=O)Nc2ccccc23)n1` (single isomer, unassigned) [23-1 Isomer 1] was tested, and the EC50 [1] was 347 nM, the Emax [1] was 113% and the EC50 [2, 4] was 251 nM. For the same compound, the Emax [2] was 78%, the EC50 ([3]; CHO cells stably expressing human M3, phospho-ERK1/2, read-out: pEC50 M3 (converted)) was > 20 µM and the Emax ([3]; CHO, read-out: M3 % Emax cf. ACh) was 8%.

For `CCOC(=O)N1CCCN(C2CCC3(CC2)C(=O)Nc2cc(C)ccc23)CC1` (single isomer, unassigned) [4-6 isomer 1], the “M1 % Emax cf. ACh” value [1] was 85%, the EC50 [1] was 575 nM and the “M4 % Emax cf. ACh” value [2, 5] was 26%. For the same compound, the EC50 [2, 4] was 3240 nM.

With `Cc1ccc(C2(C#N)CCC(N[C@@H]3CC[C@H](c4nc(C(F)(F)F)no4)C3)CC2)nc1` (single isomer, unassigned) [28-2 Isomer 2] the EC50 [1] was 3470 nM, the Emax [1] was 40% and the EC50 [2, 4] was 955 nM. It also gave an Emax [2] of 55%.

In the case of `CCOC(=O)N1CCCN(C2CCC3(CC2)C(=O)Nc2cccc(C)c23)CC1` (single isomer, unassigned) [4-8 isomer 1], the “M1 % Emax cf. ACh” value [1] is reported as 67%, the EC50 [1] is reported as 1100 nM and the “M4 % Emax cf. ACh” value [2, 5] is reported as 52%. For the same compound, the EC50 [2, 4] was 380 nM.

With `CCOC(=O)NC1CCN(C2CCC3(CC2)C(=O)Nc2ccccc23)CC1` (single isomer, unassigned) [7-1 isomer 2] the “M1 % Emax cf. ACh” value [1] was 68%, the EC50 [1] was 490 nM and the “M4 % Emax cf. ACh” value [2, 5] was 20%. For the same compound, the EC50 [2, 4] was 282 nM.

`CCOC(=O)N[C@H]1CCN(C2CCC3(CC2)C(=O)Nc2cnc(OC)cc23)C1` (single isomer, unassigned) [2-19 isomer 1] was tested, and the EC50 [1] was 2090 nM, the Emax [1] was 63% and the EC50 [2, 4] was > 20000 nM. It also gave an Emax [2] of 19%.

For `Cc1noc(C2CC3(CCN(C4CCC(C#N)(c5ccc(F)cn5)CC4)C3)C2)n1` (single isomer, unassigned) [21-3 Isomer 4], the “M1 % Emax cf. ACh” value [1] was 80%, the EC50 [1] was 162 nM and the “M4 % Emax cf. ACh” value [2, 5] was 75%. For the same compound, the EC50 [2, 4] was 69.2 nM.

`C/C=C/C(=O)N1CCCN(C2CCC3(CC2)C(=O)Nc2ccccc23)CC1` (single isomer, unassigned) [4-4 isomer 2] was tested, and the EC50 [1] was 257 nM, the Emax [1] was 48% and the EC50 [2, 4] was > 20000 nM. It also gave an Emax [2] of 12%.

`CCOC(=O)N[C@H]1CCN(C2CCC3(CC2)C(=O)Nc2cc(OC)ccc23)C1` (single isomer, unassigned) [2-9 isomer 1] was tested, and the EC50 [1] was 282 nM, the Emax [1] was 77% and the EC50 [2, 4] was > 20000 nM. The Emax [2] was 51%.

With `CC(=O)OCC[N+](C)(C)C` [ACh] the “M4 % Emax cf. ACh” value [2, 5] was 110% and the “M3 % Emax cf. ACh” value ([3]; CHO cells stably expressing human M3, Emax relative to ACh) was 115%.

`CCOC(=O)N[C@H]1CCN(C2CCC3(CC2)C(=O)Nc2c(C)cccc23)C1` (single isomer, unassigned) [2-3 isomer 1] was tested, and the EC50 [1] was 77.6 nM, the Emax [1] was 32% and the EC50 [2, 4] was > 20000 nM. The Emax [2] was 1%.

For `CCOC(=O)N1CCCN(C2CCC3(CC2)CN(S(C)(=O)=O)c2ncccc23)CC1` (single isomer, unassigned) [4-19 isomer 1], the EC50 [1] was 6760 nM, the Emax [1] was 104% and the EC50 [2, 4] was 324 nM. The Emax [2] was 97%.

`COc1ccc(C2(C#N)CCC(N3CCC4(CC(c5nc(C)no5)C4)C3)CC2)nc1` (single isomer, unassigned) [21-4 Isomer 4] was tested, and the EC50 [1] was 2140 nM, the Emax [1] was 47% and the EC50 [2, 4] was 309 nM. It also gave an Emax [2] of 68%.

`CCOC(=O)N1CCCN(C2CCC3(CC2)C(=O)Nc2ncc(Cl)cc23)CC1` (single isomer, unassigned) [4-16 isomer 1] was tested, and the EC50 [1] was 891 nM, the Emax [1] was 60% and the EC50 [2, 4] was > 20000 nM. For the same compound, the Emax [2] was 5%.

In the case of `COc1ccc2c(c1)C1(CCC(N3CCC4(CC(c5nc(C)no5)C4)C3)CC1)C(=O)N2` (single isomer, unassigned) [26-2 Isomer 3], the “M1 % Emax cf. ACh” value [1] is reported as 51%, the EC50 [1] is reported as 224 nM and the “M4 % Emax cf. ACh” value [2, 5] is reported as 14%. For the same compound, the EC50 [2, 4] was > 20000 nM.

With `CCOC(=O)N[C@H]1CCN(C2CCC3(CC2)C(=O)Nc2ccc(F)cc23)C1` (single isomer, unassigned) [2-8 isomer 1] the EC50 [1] was 93.3 nM, the Emax [1] was 59% and the EC50 [2, 4] was > 20000 nM. For the same compound, the Emax [2] was 10%.

`CCOC(=O)N[C@@H]1CCN(C2CCC3(CC2)C(=O)Nc2ccccc23)C1` (single isomer, unassigned) [2-2 isomer 1] showed an EC50 [1] of 158 nM, an Emax [1] of 103% and an EC50 [2, 4] of 871 nM. It also gave an Emax [2] of 84%.

With `CCOC(=O)NCC1CCN(C2CCC3(CC2)C(=O)Nc2ccccc23)CC1` (single isomer, unassigned) [7-2 isomer 2] the “M1 % Emax cf. ACh” value [1] was 66%, the EC50 [1] was 389 nM and the “M4 % Emax cf. ACh” value [2, 5] was 10%. The EC50 [2, 4] was > 20000 nM.

In the case of `CCOC(=O)N[C@H]1CCN(C2CCC3(CC2)C(=O)Nc2ccc(OC)nc23)C1` (single isomer, unassigned) [2-20 isomer 1], the EC50 [1] is reported as 372 nM, the Emax [1] is reported as 32% and the EC50 [2, 4] is reported as > 20000 nM. It also gave an Emax [2] of 16%.

`CCOC(=O)N1CCCN(C2CCC3(CC2)C(=O)Nc2cc(C#N)ccc23)CC1` (single isomer, unassigned) [4-13 isomer 2] was tested, and the EC50 [1] was 955 nM, the Emax [1] was 38% and the EC50 [2, 4] was 347 nM. It also gave an Emax [2] of 39%.

`CCOC(=O)N(C)[C@@H]1CCN(C2CCC3(CC2)C(=O)Nc2cccnc23)C1` (single isomer, unassigned) [2-21 isomer 2] gave an EC50 [1] of 468 nM, an Emax [1] of 58% and an EC50 [2, 4] of 245 nM. It also gave an Emax [2] of 86%.

With `Cc1ccc(C2(C#N)CCC(N3CCC4(CC(c5nc(C)no5)C4)C3)CC2)nc1` (single isomer, unassigned) [21-5 Isomer 2] the “M1 % Emax cf. ACh” value [1] was 82%, the EC50 [1] was 14500 nM and the “M4 % Emax cf. ACh” value [2, 5] was 51%. For the same compound, the EC50 [2, 4] was 1260 nM.

With `Cc1ccc(C2(C#N)CCC(N3CCC4(CC(c5nc(C)no5)C4)C3)CC2)nc1` (single isomer, unassigned) [21-5 Isomer 1] the “M1 % Emax cf. ACh” value [1] was 18%, the EC50 [1] was > 20000 nM and the EC50 [2, 4] was 1070 nM. It also gave an Emax [2] of 55%.

In the case of `CCOC(=O)N1CC2(CCN(C3CCC4(CC3)C(=O)Nc3ccccc34)C2)C1` (mixture of isomers) [10-1 mixture of isomers], the EC50 [1] is reported as 38.9 nM, the Emax [1] is reported as 39% and the EC50 [2, 4] is reported as > 20000 nM. For the same compound, the Emax [2] was 8%.

`CCOC(=O)NC1CCN(C2CCC3(CC2)C(=O)Nc2ccccc23)CC1` (single isomer, unassigned) [7-1 isomer 1] was tested, and the “M1 % Emax cf. ACh” value [1] was 112%, the EC50 [1] was 257 nM and the EC50 [2, 4] was 158 nM. The Emax [2] was 26%.

`CCOC(=O)N1CCCN(C2CCC3(CC2)C(=O)Nc2ncc(OC)cc23)CC1` (single isomer, unassigned) [4-17 isomer 2] was tested, and the EC50 [1] was 437 nM, the Emax [1] was 89% and the EC50 [2, 4] was > 20000 nM. The Emax [2] was 19%.

In the case of `CCOC(=O)N[C@H]1CCN(C2CCC3(CC2)C(=O)Nc2cc(F)ccc23)C1` (single isomer, unassigned) [2-7 isomer 1], the “M1 % Emax cf. ACh” value [1] is reported as 35%, the EC50 [1] is reported as 1780 nM and the “M4 % Emax cf. ACh” value [2, 5] is reported as 1%. For the same compound, the “pEC50 M4” value [2, 4] was < 4.7.

In the case of `CCOC(=O)N1CCCN(C2CCC3(CC2)C(=O)Nc2ccc(C#N)cc23)CC1` (single isomer, unassigned) [4-14 isomer 1], the EC50 [1] is reported as 977 nM, the Emax [1] is reported as 76% and the EC50 [2, 4] is reported as > 20000 nM. It also gave an Emax [2] of 24%.
